Source: patent US8329904B2, “Azacyclic derivatives” (Hoffmann-La Roche Inc., priority 2009, dated 2012)
pIC50: −log10 of the molar value.

These compounds were tested against T1, human HSL (Homo sapiens, UniProt Q05469) (assay: Human Hormone-Sensitive Lipase (HSL) Enzyme Inhibition Assay). Details: colorimetric assay, 2,3-dimercapto-1-propanol tributyrate (DMPT) substrate, 37° C. for 20 minutes, absorbance at 405 nm; read-out: HSL hum IC50.
T1 construct: overlapping PCR to generate a full length human HSL ORF with a 3′-His6 tag; His6 (C); made in house; host or cells: High 5 insect cells (baculovirus, pFast-BAC)
T1 sequence (Q05469 1-1076): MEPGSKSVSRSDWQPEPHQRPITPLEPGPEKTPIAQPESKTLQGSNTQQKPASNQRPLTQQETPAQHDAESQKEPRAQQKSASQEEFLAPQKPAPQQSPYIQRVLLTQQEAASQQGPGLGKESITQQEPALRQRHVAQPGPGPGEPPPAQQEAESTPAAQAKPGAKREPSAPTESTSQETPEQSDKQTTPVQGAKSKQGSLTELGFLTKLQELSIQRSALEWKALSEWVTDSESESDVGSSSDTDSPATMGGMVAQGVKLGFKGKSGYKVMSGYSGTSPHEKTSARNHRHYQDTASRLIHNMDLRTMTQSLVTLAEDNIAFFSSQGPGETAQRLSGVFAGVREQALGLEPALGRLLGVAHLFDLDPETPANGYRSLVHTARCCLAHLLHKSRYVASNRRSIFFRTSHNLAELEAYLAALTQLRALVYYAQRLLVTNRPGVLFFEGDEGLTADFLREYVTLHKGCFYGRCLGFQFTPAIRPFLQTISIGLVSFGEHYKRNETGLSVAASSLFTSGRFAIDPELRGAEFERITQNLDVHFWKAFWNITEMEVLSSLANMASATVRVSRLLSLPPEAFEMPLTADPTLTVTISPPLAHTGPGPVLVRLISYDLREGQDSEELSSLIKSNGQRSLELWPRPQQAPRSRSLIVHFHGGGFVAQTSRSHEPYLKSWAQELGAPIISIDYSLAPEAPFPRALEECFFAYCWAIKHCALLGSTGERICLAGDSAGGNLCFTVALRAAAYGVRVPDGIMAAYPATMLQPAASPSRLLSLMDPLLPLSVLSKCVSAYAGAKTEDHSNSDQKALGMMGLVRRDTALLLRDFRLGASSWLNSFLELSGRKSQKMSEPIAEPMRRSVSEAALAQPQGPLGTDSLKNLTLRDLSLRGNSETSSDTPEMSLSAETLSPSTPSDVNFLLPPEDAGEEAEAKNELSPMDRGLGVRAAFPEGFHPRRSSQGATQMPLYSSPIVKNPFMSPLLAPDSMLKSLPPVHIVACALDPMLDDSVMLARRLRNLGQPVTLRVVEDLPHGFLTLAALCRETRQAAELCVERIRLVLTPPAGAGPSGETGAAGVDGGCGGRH
Assay type: biochemical
Summary of the method: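 Colorimetric thioester hydrolysis: compounds in DMSO series mixed with DMPT (1.5 mM) in MOPS pH 7.2 with BSA, then baculovirus-expressed His6-tagged full-length human HSL added, 37° C, 20 min. DTNB plus detergents added, 15 min room temperature, absorbance at 405 nm.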

SMILES | pIC50
COCCNS(=O)(=O)N1CCC2(CCN(c3ccc(OC(F)(F)F)cc3)C2=O)CC1 [Example 289, 1-Oxo-2-(4-trifluoromethoxy-phenyl)-2,8-diaza-spiro[4.5]decane-8-sulfonic acid (2-methoxy-ethyl)-amide] | 6.64
CC(C)CS(=O)(=O)N1CCC2(CCN(c3ccc(OC4CCCC4)cc3)C2=O)CC1 [Example 66, 2-(4-Cyclopentyloxy-phenyl)-8-(2-methyl-propane-1-sulfonyl)-2,8-diaza-spiro[4.5]decan-1-one] | 6.80
O=C1N(c2ccc(OC(F)(F)F)cc2)CCC12CCN(S(=O)(=O)c1ccncc1)CC2 [Example 203, 8-(Pyridine-4-sulfonyl)-2-(4-trifluoromethoxy-phenyl)-2,8-diaza-spiro[4.5]decan-1-one] | 6.60
CCc1ccc(N2CCC3(CCN(S(=O)(=O)CC(C)(C)C)CC3)C2=O)cc1 [Example 32, 8-(2,2-Dimethyl-propane-1-sulfonyl)-2-(4-ethyl-phenyl)-2,8-diaza-spiro[4.5]decan-1-one] | 7.10
CCCCN(C)C(=O)N1CCC2(CC1)CCN(c1ccc(C3CC3)cc1)C2=O [Example 314, 2-(4-Cyclopropyl-phenyl)-1-oxo-2,8-diaza-spiro[4.5]decane-8-carboxylic acid butyl-methyl-amide] | 6.89
O=C1N(Cc2ccc(OC(F)(F)F)cc2)CCC12CCN(S(=O)(=O)c1ccccc1Cl)CC2 [Example 49, 8-(2-Chloro-benzenesulfonyl)-2-(4-trifluoromethoxy-benzyl)-2,8-diaza-spiro[4.5]decan-1-one] | 6.82
CCCNC(=O)N1CCC2(CC1)CCN(c1ccc(OC(F)(F)F)cc1)C2=O [Example 251, 1-Oxo-2-(4-trifluoromethoxy-phenyl)-2,8-diaza-spiro[4.5]decane-8-carboxylic acid propylamide] | 6.33
CCS(=O)(=O)c1ccc(N2CCC3(CCN(S(=O)(=O)c4ccccc4Cl)CC3)C2=O)cc1 [Example 156, 8-(2-Chloro-benzenesulfonyl)-2-(4-ethanesulfonyl-phenyl)-2,8-diaza-spiro[4.5]decan-1-one] | 7.22
O=C1N(c2ccc(OC(F)(F)F)cc2)CCC12CCN(S(=O)(=O)c1cccnc1Cl)CC2 [Example 188, 8-(2-Chloro-pyridine-3-sulfonyl)-2-(4-trifluoromethoxy-phenyl)-2,8-diaza-spiro[4.5]decan-1-one] | 7.70
CC(CNS(=O)(=O)N1CCC2(CCN(c3ccc(OC(F)(F)F)cc3)C2=O)CC1)c1ccccc1 (centres unmarked) [Example 288, 1-Oxo-2-(4-trifluoromethoxy-phenyl)-2,8-diaza-spiro[4.5]decane-8-sulfonic acid (2-phenyl-propyl)-amide] | 6.82
CN(Cc1ccccc1)S(=O)(=O)N1CCC2(CCN(c3ccc(OC(F)(F)F)cc3)C2=O)CC1 [Example 296, 1-Oxo-2-(4-trifluoromethoxy-phenyl)-2,8-diaza-spiro[4.5]decane-8-sulfonic acid benzyl-methyl-amide] | 7.15
O=C1N(c2ccc(OC(F)(F)F)cc2)CCC12CCN(S(=O)(=O)NCc1ccccc1)CC2 [Example 287, 1-Oxo-2-(4-trifluoromethoxy-phenyl)-2,8-diaza-spiro[4.5]decane-8-sulfonic acid benzylamide] | 7.30
O=C1N(c2ccc(OC(F)(F)F)cc2)CCC12CCN(S(=O)(=O)c1ncccn1)CC2 [Example 202, 8-(Pyrimidine-2-sulfonyl)-2-(4-trifluoromethoxy-phenyl)-2,8-diaza-spiro[4.5]decan-1-one] | 6.80
O=C1N(c2ccc(OC(F)(F)F)cc2)CCC12CCN(S(=O)(=O)c1cccnc1O)CC2 [Example 196, 8-(2-Hydroxy-pyridine-3-sulfonyl)-2-(4-trifluoromethoxy-phenyl)-2,8-diaza-spiro[4.5]decan-1-one] | 6.64
CCN(C(=O)N1CCC2(CC1)CCN(c1ccc(OC(F)(F)F)cc1)C2=O)C1CCCCC1 [Example 305, 1-Oxo-2-(4-trifluoromethoxy-phenyl)-2,8-diaza-spiro[4.5]decane-8-carboxylic acid cyclohexyl-ethyl-amide] | 6.85
CC(C)(O)CS(=O)(=O)N1CCC2(CCN(c3ccc(OC(F)(F)F)cc3)C2=O)CC1 [Example 212, 8-(2-Hydroxy-2-methyl-propane-1-sulfonyl)-2-(4-trifluoromethoxy-phenyl)-2,8-diaza-spiro[4.5]decan-1-one] | 6.70
COCCOc1ccc(N2CCC3(CCN(S(=O)(=O)c4ccccc4OC(F)(F)F)CC3)C2=O)cc1 [Example 106, 2-[4-(2-Methoxy-ethoxy)-phenyl]-8-(2-trifluoromethoxy-benzenesulfonyl)-2,8-diaza-spiro[4.5]decan-1-one] | 7.40
CC(C)(C)CC(=O)N1CCC2(CC1)CCN(c1ccc(C(O)C(C)(F)F)cc1)C2=O (centres unmarked) [Example 175, 2-(4-(2,2-difluoro-1-hydroxypropyl)phenyl)-8-(3,3-dimethylbutanoyl)-2,8-diazaspiro[4.5]decan-1-one] | 6.12

Now from value to compound:

pIC50 | SMILES
6.85 | O=C1N(c2ccc(OC(F)(F)F)cc2)CCC12CCN(S(=O)(=O)c1ccc(C(F)(F)F)cc1Cl)CC2 [Example 70, 8-(2-Chloro-4-trifluoromethyl-benzenesulfonyl)-2-(4-trifluoromethoxy-phenyl)-2,8-diaza-spiro[4.5]decan-1-one]
7.52 | CCc1ccc(N2CCC3(CCN(S(=O)(=O)c4ccccc4OC(F)(F)F)CC3)C2=O)cc1 [Example 54, 2-(4-Ethyl-phenyl)-8-(2-trifluoromethoxy-benzenesulfonyl)-2,8-diaza-spiro[4.5]decan-1-one]
6.70 | CN(CCO)S(=O)(=O)N1CCC2(CCN(c3ccc(OC(F)(F)F)cc3)C2=O)CC1 [Example 292, 1-Oxo-2-(4-trifluoromethoxy-phenyl)-2,8-diaza-spiro[4.5]decane-8-sulfonic acid (2-hydroxy-ethyl)-methyl-amide]
6.89 | CN(CCc1ccccc1)C(=O)N1CCC2(CC1)CCN(c1ccc(OC(F)(F)F)cc1)C2=O [Example 282, 1-Oxo-2-(4-trifluoromethoxy-phenyl)-2,8-diaza-spiro[4.5]decane-8-carboxylic acid methyl-phenethyl-amide]
6.44 | CCc1ccc(N2CCC3(CCN(S(=O)(=O)CCC(F)(F)F)CC3)C2=O)cc1 [Example 30, 2-(4-Ethyl-phenyl)-8-(3,3,3-trifluoro-propane-1-sulfonyl)-2,8-diaza-spiro[4.5]decan-1-one]
6.13 | COCCCOc1ccc(N2CCC3(CCN(S(=O)(=O)CC(C)C)CC3)C2=O)cc1 [Example 107, 2-[4-(3-Methoxy-propoxy)-phenyl]-8-(2-methyl-propane-1-sulfonyl)-2,8-diaza-spiro[4.5]decan-1-one]
7.05 | CCN(CC)S(=O)(=O)N1CCC2(CCN(c3ccc(OC(F)(F)F)cc3)C2=O)CC1 [Example 291, 1-Oxo-2-(4-trifluoromethoxy-phenyl)-2,8-diaza-spiro[4.5]decane-8-sulfonic acid diethylamide]
7.40 | O=C1N(c2ccc(C(O)C(F)F)cc2)CCC12CCN(S(=O)(=O)c1ccccc1C(F)(F)F)CC2 (racemic) [Example 176, (rac)-2-(4-(2,2-difluoro-1-hydroxyethyl)phenyl)-8-(2-(trifluoromethyl)phenylsulfonyl)-2,8-diazaspiro[4.5]decan-1-one]
